The values below come from patent publication US20220169598A1, “HALOGENATED PHENYLSULFONAMIDE HYDROXAMIC ACID COMPOUNDS, COMPOSITIONS AND USES THEREOF AS SELECTIVE HDAC6 INHIBITORS” (2681603 ONTARIO INC., priority 2019, published 2022).

Structures are written as SMILES. Like-named read-outs stand apart in the source and are kept apart here.

Series [1] in a line: Plasma stability by LC-MS. The class given is in vitro ADME. The conditions noted are these: mouse plasma. How it is done:
The stability of select compounds of the application in plasma was assessed quantitatively through LC-MS and the results are shown in Table 6.

The test system of another series is MV-4-11. Kind of series: Cytotoxicity in cell lines. The class given is cell-based. The conditions noted are these: read-out: IC50 MV-411. How it is done: (§1) The cytotoxicity of exemplary compounds of the application was tested in multiple cell lines including MV-4-11, MOLM-13, MCF-7, MRC9, K562 and MM.1S. The therapeutic index was evaluated by determining the toxicity of the exemplary compounds in healthy cell lines including fibroblasts and HUVEC.

For the next series, the system named is MOLM-13. Kind of series: Cytotoxicity in cell lines. The class given is cell-based. The note with it: Homo sapiens, MOLM-13, read-out: IC50 MOLM-13. The protocol:
as §1

The target in a further series is T1, HDAC6 (Homo sapiens, UniProt Q9UBN7).
T1 sequence (Q9UBN7 1-1215): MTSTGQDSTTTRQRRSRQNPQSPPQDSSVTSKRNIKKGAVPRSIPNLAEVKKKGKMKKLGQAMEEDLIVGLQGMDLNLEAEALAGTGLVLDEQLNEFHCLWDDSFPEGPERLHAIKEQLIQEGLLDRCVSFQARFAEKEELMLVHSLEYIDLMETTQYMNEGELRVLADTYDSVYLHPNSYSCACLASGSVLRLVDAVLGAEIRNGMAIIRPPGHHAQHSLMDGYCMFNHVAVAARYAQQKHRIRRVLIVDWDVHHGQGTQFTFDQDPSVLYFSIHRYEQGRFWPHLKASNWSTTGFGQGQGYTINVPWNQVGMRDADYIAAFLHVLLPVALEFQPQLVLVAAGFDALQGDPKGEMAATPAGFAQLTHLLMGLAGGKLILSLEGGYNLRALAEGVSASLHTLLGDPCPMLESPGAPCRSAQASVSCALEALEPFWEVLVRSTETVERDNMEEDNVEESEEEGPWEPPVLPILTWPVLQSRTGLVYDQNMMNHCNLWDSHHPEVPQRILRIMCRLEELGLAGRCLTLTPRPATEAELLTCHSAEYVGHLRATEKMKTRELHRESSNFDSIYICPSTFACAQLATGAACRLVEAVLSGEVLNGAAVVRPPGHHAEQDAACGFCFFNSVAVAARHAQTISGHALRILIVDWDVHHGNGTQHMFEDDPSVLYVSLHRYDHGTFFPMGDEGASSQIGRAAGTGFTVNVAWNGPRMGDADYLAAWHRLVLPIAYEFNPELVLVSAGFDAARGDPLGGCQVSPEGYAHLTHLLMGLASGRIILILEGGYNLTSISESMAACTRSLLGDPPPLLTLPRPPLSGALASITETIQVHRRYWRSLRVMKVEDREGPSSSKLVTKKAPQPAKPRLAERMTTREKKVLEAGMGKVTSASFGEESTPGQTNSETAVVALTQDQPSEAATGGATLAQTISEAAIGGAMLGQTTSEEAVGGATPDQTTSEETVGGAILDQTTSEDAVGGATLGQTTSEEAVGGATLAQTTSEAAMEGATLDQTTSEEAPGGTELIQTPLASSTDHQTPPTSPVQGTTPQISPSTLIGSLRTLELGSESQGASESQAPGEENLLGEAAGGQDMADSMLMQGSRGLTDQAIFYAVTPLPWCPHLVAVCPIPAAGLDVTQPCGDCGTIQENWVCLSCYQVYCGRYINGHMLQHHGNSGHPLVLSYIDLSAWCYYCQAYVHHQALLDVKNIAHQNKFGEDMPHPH
Kind of series: in vitro activity-based HDAC assay. The class given is biochemical. The note with it: ranges given; read-out: IC50 for HDAC6. The protocol:
The exemplary compounds of Formula I and structurally related compounds were synthesized to assess their structure-activity relationship. […] The IC50 values for each exemplary compound were used to calculate the selectivity of the exemplary compounds for Formula I to HDAC6. The selectivity of each exemplary compound for HDAC6 was determined from examining the potency of HDAC6 in relation to the highest binding affinity of the other HDAC isoforms tested.

Take `O=C(/C=C/c1cccc(S(=O)(=O)Nc2ccccc2)c1)NO` [Belinostat]: in series [1], the half-life (as a rule, how long it takes for the measured level to halve) was found to be 2.35 h; the “Remaining Percentage (%) 0 min” value was determined as 100%; the “Remaining Percentage (%) 15 min” value was determined as 88.6%; the “Remaining Percentage (%) 30 min” value turned out to be 78.8%. Moreover, in series [1], the “Remaining Percentage (%) 45 min” value stood at 75.0%, the “Remaining Percentage (%) 60 min” value was determined as 72.1% and the “Remaining Percentage (%) 120 min” value was 53.8%. For `CN(Cc1ccc(C(=O)NO)cc1)S(=O)(=O)c1c(F)c(F)c(F)c(F)c1F` [Compound I-2, N-hydroxy-4-((2,3,4,5,6-pentafluoro-N-methylphenylsulfonamido)methyl)benzamide], in the series on MV-4-11 (Homo sapiens, MV4-11, Table 4), the concentration for half-maximal inhibition (IC50) (in general, the point on the concentration scale where inhibition reaches its midpoint) came to 1040 nM.

On to `O=C(NO)c1ccc(CN(Cc2ccc(F)cc2)S(=O)(=O)c2c(F)c(F)c(F)c(F)c2F)cc1` [Compound I-9, N-hydroxy-4-((2,3,4,5,6-pentafluoro-N-(4-fluorobenzyl)phenylsulfonamido)methyl)benzamide], for which, in the series on MOLM-13 (Table 4), the half-maximal inhibitory concentration (IC50) was determined as 5200 nM. Still for that read-out and setting: under `O=C(NO)c1ccc(CN(Cc2ccc(C(F)(F)F)cc2)S(=O)(=O)c2c(F)c(F)c(F)c(F)c2F)cc1` [Compound I-10, N-hydroxy-4-((2,3,4,5,6-pentafluoro-N-(4-(trifluoromethyl)benzyl)phenylsulfonamido)methyl)benzamide] stands 9100 nM; under `O=C(NO)c1ccc(CN(Cc2cc(F)c(F)c(F)c2)S(=O)(=O)c2c(F)c(F)c(F)c(F)c2F)cc1` [Compound I-11, N-hydroxy-4-((2,3,4,5,6-pentafluoro-N-(3,4,5-trifluorobenzyl)phenylsulfonamido)methyl)benzamide], 3500 nM. Take `O=C(NO)c1ccc(CN(C2CC2)S(=O)(=O)c2c(F)c(F)cc(F)c2F)cc1` [Compound I-14, 4-((N-cyclopropyl-2,3,5,6-tetrafluorophenylsulfonamido)methyl)-N-hydroxybenzamide]: the half-maximal inhibitory concentration (IC50) with MV-4-11 (Homo sapiens, MV4-11, Table 4) amounted to 5700 nM.

Take `O=C(NO)c1ccc(CN(Cc2ccccc2)S(=O)(=O)c2cc(F)c(F)c(F)c2F)cc1` [Compound I-16, 4-((N-benzyl-2,3,4,5-tetrafluorophenylsulfonamido)methyl)-N-hydroxybenzamide]: the IC50 with MV-4-11 (Homo sapiens, MV4-11, Table 4) amounted to 190 nM.

`O=C(NO)c1ccc(CN(Cc2ccccn2)S(=O)(=O)c2cc(F)c(F)c(F)c2F)cc1` [Compound I-20, N-hydroxy-4-((2,3,4,5-tetrafluoro-N-(pyridin-2-ylmethyl)phenylsulfonamido)methyl)benzamide]: the IC50 in the series on MV-4-11 (Homo sapiens, MV4-11, Table 4) was 480 nM. As for `Cc1ccc(CN(Cc2ccc(C(=O)NO)cc2)S(=O)(=O)c2cc(F)c(F)c(F)c2F)c(F)c1` [Compound I-26, N-hydroxy-4-((2,3,4,5-tetrafluoro-N-(2-fluoro-4-methylbenzyl)phenylsulfonamido)methyl)benzamide], in the series with MV-4-11 (Homo sapiens, MV4-11, Table 4), the IC50 turned out to be 1870 nM. Turning to `O=C(NO)c1ccc(CN(Cc2ccc(F)nc2)S(=O)(=O)c2cc(F)c(F)c(F)c2F)cc1` [Compound I-27, N-hydroxy-4-((2,3,4,5-tetrafluoro-N-((6-fluoropyridin-3-yl)methyl)phenylsulfonamido)methyl)benzamide], the concentration for half-maximal inhibition (IC50) in the series with MV-4-11 (Homo sapiens, MV4-11, Table 4) worked out at 843 nM. For `O=C(NO)c1ccc(CN(Cc2ccncc2F)S(=O)(=O)c2cc(F)c(F)c(F)c2F)cc1` [Compound I-28, N-hydroxy-4-((2,3,4,5-tetrafluoro-N-((3-fluoropyridin-4-yl)methyl)phenylsulfonamido)methyl)benzamide], the IC50 with MOLM-13 (Table 4) stood at 663 nM; in the series with MV-4-11 (Homo sapiens, MV4-11, Table 4) it was 596 nM. As to `O=C(NO)c1ccc(CN(C2CC2)S(=O)(=O)c2c(F)cc(F)c(Cl)c2F)cc1` [Compound I-42, 4-((3-chloro-N-cyclopropyl-2,4,6-trifluorophenylsulfonamido)methyl)-N-hydroxybenzamide], the 50% inhibitory concentration (IC50) with MV-4-11 (Homo sapiens, MV4-11, Table 4) came to 741 nM. For `O=C(/C=C/c1ccc(CN(Cc2ccc(F)cc2)S(=O)(=O)c2c(F)c(F)c(F)c(F)c2F)cc1)NO` [Compound I-59, (E)-N-hydroxy-3-(4-((2,3,4,5,6-pentafluoro-N-(4-fluorobenzyl)phenylsulfonamido)methyl)phenyl)acrylamide], the IC50 on HDAC6 was 10 to 30 nM; in the series on MV-4-11 (Homo sapiens, MV4-11, Table 5) it was 590 nM. On the same counts, the results for `CC(c1ccc(F)cc1)N(Cc1ccc(/C=C/C(=O)NO)cc1)S(=O)(=O)c1c(F)c(F)c(F)c(F)c1F` (stereo not drawn) [Compound I-60, (E)-N-hydroxy-3-(4-((2,3,4,5,6-pentafluoro-N-(1-(4-fluorophenyl)ethyl)phenylsulfonamido)methyl)phenyl)acrylamide] are 10 to 30 nM and 470 nM. With `COc1ccc(CN(Cc2ccc(/C=C/C(=O)NO)cc2)S(=O)(=O)c2c(F)c(F)c(F)c(F)c2F)cc1` [Compound I-61, (E)-N-hydroxy-3-(4-((2,3,4,5,6-pentafluoro-N-(4-methoxybenzyl)phenylsulfonamido)methyl)phenyl)acrylamide], on HDAC6, the concentration for half-maximal inhibition (IC50) was 30 to 50 nM. On to `O=C(/C=C/c1ccc(CN(C2CCCC2)S(=O)(=O)c2cc(F)c(F)c(F)c2F)cc1)NO` [Compound I-65, (E)-3-(4-((N-cyclopentyl-2,3,4,5-tetrafluorophenylsulfonamido)methyl)phenyl)-N-hydroxyacrylamide], for which the concentration for half-maximal inhibition (IC50) on HDAC6 was 150 to 200 nM; with MV-4-11 (Homo sapiens, MV4-11, Table 5), 2430 nM; in the series on MV-4-11 (Table 5), 1940 nM. As to `O=C(/C=C/c1ccc(CN(Cc2ccccc2)S(=O)(=O)c2cc(F)c(F)c(F)c2F)cc1)NO` [Compound I-67], the IC50 in the series on MV-4-11 (Homo sapiens, MV4-11, Table 5) was determined as 1140 nM. The same measure, in the same setting: under `O=C(/C=C/c1ccc(CN(Cc2ccc(F)cc2)S(=O)(=O)c2cc(F)c(F)c(F)c2F)cc1)NO` [Compound I-68] stands 800 nM. As for `CN(C)c1ccc(CN(Cc2ccc(/C=C/C(=O)NO)cc2)S(=O)(=O)c2cc(F)c(F)c(F)c2F)cc1` [Compound I-69], the half-inhibitory concentration (IC50) in the series with MOLM-13 (Table 5) came to 1800 nM; in the series with MV-4-11 (Homo sapiens, MV4-11, Table 5), 1600 nM. `O=C(Cc1ccc(CN(C2CC2)S(=O)(=O)c2cc(F)c(F)c(F)c2F)cc1)NO` [Compound I-71, 2-(4-((N-cyclopropyl-2,3,4,5-tetrafluorophenylsulfonamido)methyl)phenyl)-N-hydroxyacetamide]: the IC50 on HDAC6 fell in the range of 100 to 150 nM. As to `O=C(Cc1ccc(CN(C2CCCCC2)S(=O)(=O)c2cc(F)c(F)c(F)c2F)cc1)NO` [Compound I-72], in the series on MV-4-11 (Homo sapiens, MV4-11, Table 5), the 50% inhibitory concentration (IC50) was 570 nM. On the same count and under the same terms, the same measure for `Cc1ccc(CN(Cc2ccc(CC(=O)NO)cc2)S(=O)(=O)c2cc(F)c(F)c(F)c2F)cc1F` [Compound I-73]: 1090 nM. With `COc1cc(/C=C/C(=O)NO)ccc1CN(Cc1cccnc1)S(=O)(=O)c1cc(F)c(F)c(F)c1F` [Compound I-78], the 50% inhibitory concentration (IC50) in the series with MOLM-13 (Table 5) came to 2900 nM; in the series with MV-4-11 (Homo sapiens, MV4-11, Table 5), 1300 nM. For the molecule `O=C(/C=C/c1ccc(CNC(=O)c2c(F)c(F)c(F)c(F)c2F)cc1)NO` [Compound I-81, (E)-2,3,4,5,6-pentafluoro-N-(4-(3-(hydroxyamino)-3-oxoprop-1-en-1-yl)benzyl)benzamide], the half-inhibitory concentration (IC50) on HDAC6 fell in the range of 10 to 30 nM. On to `O=C(/C=C/c1ccc(CN(C(=O)c2c(F)c(F)c(F)c(F)c2F)C2CC2)cc1)NO` [Compound I-83, (E)-N-cyclopropyl-2,3,4,5,6-pentafluoro-N-(4-(3-(hydroxyamino)-3-oxoprop-1-en-1-yl)benzyl)benzamide], for which the IC50 in the series on MV-4-11 (Homo sapiens, MV4-11, Table 5) worked out at 750 nM. Regarding `O=C(CCCCCCC(=O)Nc1ccccc1)NO` [Vorinostat], in series [1], the half-life is 1.98 h, the “Remaining Percentage (%) 0 min” value came to 100%, the “Remaining Percentage (%) 15 min” value came out at 98.6% and the “Remaining Percentage (%) 30 min” value was 89.0%. In addition, in series [1], the “Remaining Percentage (%) 45 min” value was determined as 74.9%, the “Remaining Percentage (%) 60 min” value is recorded as 68.4% and the “Remaining Percentage (%) 120 min” value was 52.1%.
